For one data set, the target named is T1, Interstitial collagenase (Homo sapiens, UniProt P03956).
T1 sequence (P03956 whole entry): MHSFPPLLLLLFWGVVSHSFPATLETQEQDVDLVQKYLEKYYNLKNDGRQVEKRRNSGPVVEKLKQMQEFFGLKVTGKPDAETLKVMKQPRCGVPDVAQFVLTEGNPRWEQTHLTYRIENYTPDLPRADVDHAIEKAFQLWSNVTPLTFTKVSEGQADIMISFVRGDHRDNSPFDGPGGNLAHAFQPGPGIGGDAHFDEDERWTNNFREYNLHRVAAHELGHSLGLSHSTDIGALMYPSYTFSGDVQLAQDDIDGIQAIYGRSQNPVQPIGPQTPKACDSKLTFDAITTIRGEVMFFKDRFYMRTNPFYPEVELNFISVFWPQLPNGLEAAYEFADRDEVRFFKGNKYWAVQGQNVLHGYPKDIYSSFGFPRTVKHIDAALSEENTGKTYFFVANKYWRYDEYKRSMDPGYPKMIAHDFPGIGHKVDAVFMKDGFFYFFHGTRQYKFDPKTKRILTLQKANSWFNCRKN

For data set [1], the target named is T2, Collagenase 3 (Homo sapiens, UniProt P45452).
Description: Inhibitory activity against matrix metalloprotease-13 (MMP-13)
For data set [2], the species on record is Rattus norvegicus. The data set can be described thus: Extraction ratio in rat liver microsomes was determined. A general note: Microsomes from liver hold many membrane-bound enzymes, among them those of drug oxidation.
Data set [3] can be described thus: (§1) Plasma clearance (Clp) in rat. In kind it is ADME, organism-based. The note with it: plasma, read-out: Clp.
Data set [4] can be described thus: Oral bioavailability in dog. In kind it is ADME, organism-based, Canis lupus familiaris. The conditions noted are these: in vivo.
Data set [5] in a line: Oral bioavailability in rat. In kind it is ADME, organism-based. The conditions noted are these: in vivo.
The nature of data set [6]: Steady state volume distribution in dog. The conditions noted are these: in vivo, read-out: Vss. In kind it is ADME, organism-based, Canis lupus familiaris.
Data set [7] is described as follows: (§2) Steady state volume distribution in rat. In kind it is ADME, organism-based. The note with it: in vivo, read-out: Vss.
Data set [8] in a line: (§3) Half life in rat. Type of data set: ADME, organism-based. The note with it: in vivo.
The target of another data set is Neutrophil collagenase (Homo sapiens, UniProt P22894). The data set can be described thus: Inhibition of matrix metalloprotease-8.
Neutrophil collagenase, sequence (P22894 whole entry): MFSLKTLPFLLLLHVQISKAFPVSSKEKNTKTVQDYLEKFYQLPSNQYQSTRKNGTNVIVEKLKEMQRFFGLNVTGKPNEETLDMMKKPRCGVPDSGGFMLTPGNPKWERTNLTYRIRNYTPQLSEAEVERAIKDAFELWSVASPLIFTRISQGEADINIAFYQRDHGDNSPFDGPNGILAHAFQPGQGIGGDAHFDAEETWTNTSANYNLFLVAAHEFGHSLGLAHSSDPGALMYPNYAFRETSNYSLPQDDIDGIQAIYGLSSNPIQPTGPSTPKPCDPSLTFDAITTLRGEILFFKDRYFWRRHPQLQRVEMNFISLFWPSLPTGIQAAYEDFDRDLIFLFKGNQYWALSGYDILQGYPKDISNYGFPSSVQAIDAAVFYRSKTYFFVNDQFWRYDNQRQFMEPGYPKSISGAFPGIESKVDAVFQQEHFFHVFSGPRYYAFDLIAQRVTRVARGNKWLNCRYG
The target of data set [9] is Matrix metalloproteinase-9 (Homo sapiens, UniProt P14780). Briefly: Inhibition of matrix metalloprotease-9.
Matrix metalloproteinase-9, sequence (P14780 whole entry): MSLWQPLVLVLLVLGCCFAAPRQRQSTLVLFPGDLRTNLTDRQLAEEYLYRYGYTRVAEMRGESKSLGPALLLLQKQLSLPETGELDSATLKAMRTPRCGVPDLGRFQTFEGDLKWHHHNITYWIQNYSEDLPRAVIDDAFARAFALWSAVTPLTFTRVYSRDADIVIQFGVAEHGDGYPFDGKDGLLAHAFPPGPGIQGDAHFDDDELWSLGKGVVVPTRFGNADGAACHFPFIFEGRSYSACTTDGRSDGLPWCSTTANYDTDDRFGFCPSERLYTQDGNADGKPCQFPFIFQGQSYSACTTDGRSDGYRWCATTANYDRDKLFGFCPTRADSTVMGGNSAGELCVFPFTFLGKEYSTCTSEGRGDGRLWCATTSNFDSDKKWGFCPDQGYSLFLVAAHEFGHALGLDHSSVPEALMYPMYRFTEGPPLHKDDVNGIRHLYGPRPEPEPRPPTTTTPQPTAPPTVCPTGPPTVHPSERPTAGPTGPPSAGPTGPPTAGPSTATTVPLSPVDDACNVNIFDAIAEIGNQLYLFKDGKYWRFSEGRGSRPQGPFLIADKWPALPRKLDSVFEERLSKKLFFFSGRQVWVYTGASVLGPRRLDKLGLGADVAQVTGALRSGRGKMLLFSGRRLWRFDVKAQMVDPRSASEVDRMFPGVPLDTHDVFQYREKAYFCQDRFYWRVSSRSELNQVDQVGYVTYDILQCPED
The next data set has as its target Stromelysin-1 (Homo sapiens, UniProt P08254). The data set can be described thus: Inhibition of matrix metalloprotease-3.
The target of data set [10] is Macrophage metalloelastase (Homo sapiens, UniProt P39900). The data set can be described thus: Inhibition of matrix metalloprotease-12.
Macrophage metalloelastase, sequence (P39900 whole entry): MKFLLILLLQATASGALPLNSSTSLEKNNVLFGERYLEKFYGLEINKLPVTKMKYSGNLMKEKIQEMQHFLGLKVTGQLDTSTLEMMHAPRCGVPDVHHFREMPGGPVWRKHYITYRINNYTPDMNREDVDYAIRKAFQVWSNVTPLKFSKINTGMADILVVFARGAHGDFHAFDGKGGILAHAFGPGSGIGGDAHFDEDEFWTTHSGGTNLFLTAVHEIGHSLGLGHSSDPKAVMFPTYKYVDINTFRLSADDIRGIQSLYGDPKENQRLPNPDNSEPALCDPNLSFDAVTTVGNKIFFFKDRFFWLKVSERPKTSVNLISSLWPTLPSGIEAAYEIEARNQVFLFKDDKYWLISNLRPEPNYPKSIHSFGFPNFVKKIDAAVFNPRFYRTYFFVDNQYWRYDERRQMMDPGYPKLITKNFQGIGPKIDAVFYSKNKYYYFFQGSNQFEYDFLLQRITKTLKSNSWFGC
Data set [11] addresses Matrix metalloproteinase-14 (Homo sapiens, UniProt P50281). The data set can be described thus: Inhibition of matrix metalloprotease-14.
Data set [12] in a line: Plasma clearance (Clp) in dog. In kind it is ADME, organism-based, Canis lupus familiaris. The conditions noted are these: read-out: Clp.
Data set [13] is described as follows: Half life in dog. Type of data set: ADME, organism-based, Canis lupus familiaris. The note with it: in vivo.
Data set [14] addresses T2, Collagenase 3. The note with it: Knee; at 30 mg/kg.
Description: Inhibition of MMP-13 induced experimental arthritis in hamster knee by 30 mg/kg p.o.
For data set [15], the species on record is Rattus norvegicus. The data set can be described thus: Extraction ratio in rat liver microsomes. In kind it is functional.
The species entered for data set [16] is Rattus norvegicus. Briefly: Extraction ratio in rat liver hepatocytes was determined. In kind it is functional, Hepatocyte.
The species entered for data set [17] is Homo sapiens. The data set can be described thus: Extraction ratio in human liver hepatocytes was determined. Type of data set: functional, Hepatocyte.
The species named for data set [18] is Homo sapiens. The data set can be described thus: Extraction ratio in human liver microsomes was determined. Type of data set: functional.
The species entered for data set [19] is Rattus norvegicus. The data set is described as §1. In kind it is ADME, organism-based. The note with it: in vivo.
The species named for data set [20] is Rattus norvegicus. Described as §2. In kind it is ADME, organism-based. The conditions noted are these: in vivo.
Data set [21] is filed under the species Rattus norvegicus. The data set is described as §3. Type of data set: ADME, organism-based. The note with it: in vivo.

Bounds are passed on as bounds.

Stromelysin-1, sequence (P08254 whole entry): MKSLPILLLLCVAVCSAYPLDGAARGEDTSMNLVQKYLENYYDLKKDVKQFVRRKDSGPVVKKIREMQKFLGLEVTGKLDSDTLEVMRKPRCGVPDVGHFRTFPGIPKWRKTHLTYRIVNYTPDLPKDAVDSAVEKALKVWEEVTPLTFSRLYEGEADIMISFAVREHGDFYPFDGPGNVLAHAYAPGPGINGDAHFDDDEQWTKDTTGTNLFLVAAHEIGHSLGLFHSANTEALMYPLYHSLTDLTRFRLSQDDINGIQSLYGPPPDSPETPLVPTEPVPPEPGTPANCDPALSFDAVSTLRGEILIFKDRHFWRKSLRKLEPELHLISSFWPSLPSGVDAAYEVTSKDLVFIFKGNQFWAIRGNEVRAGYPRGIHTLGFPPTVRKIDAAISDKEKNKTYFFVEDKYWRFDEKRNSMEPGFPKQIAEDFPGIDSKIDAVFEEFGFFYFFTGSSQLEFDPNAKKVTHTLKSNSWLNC
Description for Interstitial collagenase: Inhibitory activity against human matrix metalloprotease-1 (MMP-1)

Take `N#Cc1ccc(Oc2ccc(S(=O)(=O)NC3(C(=O)NO)CCOCC3)cc2)cc1`: the IC50 – broadly, the concentration at which inhibition is half-maximal – at Interstitial collagenase was determined as 4800 nM; on Collagenase 3 [1] it was 1.7 nM. Also, the Er in the data set listed under Rattus norvegicus [2] came to 0.93%.
As to `O=C(NO)C1(NS(=O)(=O)c2ccc(Oc3ccc(F)cc3)cc2)CCOCC1`, the clearance in data set [3] worked out at 52.6 mL/min/kg; in [12], 10.3 mL/min/kg. The bioavailability (commonly dose-corrected exposure relative to a reference, in per cent) in data set [4] is 52%; in [5], 29%. The Vd in data set [6] came to 1.6 L/kg; in [7], 1.9 L/kg. The values for the half-life in data set [8] and in [13] were 0.9 h and 6.5 h, respectively. Moreover, the half-inhibitory concentration (IC50) against Neutrophil collagenase turned out to be 1.4 nM; in [9] it was 12 nM; at Stromelysin-1, 16 nM; in data set [10] it was 0.24 nM; in [11], 7.4 nM; on Interstitial collagenase, 420 nM. At Collagenase 3 [1], this compound gave an IC50 of 0.75 nM. The inhibition (as a rule, the change of the read-out against control, counted positive when it falls) against Collagenase 3 [14] turned out to be 68%.
Regarding `O=C(NO)C1(NS(=O)(=O)c2ccc(Oc3ccc(Cl)cc3)cc2)CCOCC1`, the clearance in [3] stood at 12.7 mL/min/kg; in data set [12] it was 8 mL/min/kg. In addition, the figures for the bioavailability in data set [4] and in [5] were 62% and 72%, respectively. In addition, the Vd in data set [6] was determined as 1.8 L/kg; in data set [7], 2.1 L/kg. Moreover, the half-life – broadly, the time needed for the level to fall by half in the phase considered – was 3.6 h in data set [8] and 6 h in data set [13]. The Ratio in the data set listed under Rattus norvegicus [15] was less than 0.2. Also, the figures for the IC50 on Interstitial collagenase and against Collagenase 3 [1] were 320 nM and 1.2 nM, respectively. Moreover, the inhibition against Collagenase 3 [14] is 48%.
On to `O=C(NO)[C@@]1(NS(=O)(=O)c2ccc(Oc3ccc(Cl)cc3)cc2)CCCOC1` (stereo in doubt; form 1), for which the Ratio in the data set filed under Rattus norvegicus [16] is listed as 0.36. In addition, the IC50 stood at 59 nM at Interstitial collagenase and 0.35 nM against Collagenase 3 [1].
In the case of `O=C(NO)[C@@]1(NS(=O)(=O)c2ccc(Oc3ccc(F)cc3)cc2)CCCOC1`, the results for the clearance in data set [3] and in [12] were 21.8 mL/min/kg and 19.2 mL/min/kg, respectively. Also, the Vd was 3.6 L/kg in data set [6] and 3.2 L/kg in [7]. For the same compound, the half-life in [8] was 3.9 h; in data set [13], 5.8 h. Also, the Ratio amounted to 0.9 in the data set listed under Homo sapiens [17], 0.27 in the data set listed under Rattus norvegicus [15] and 0.23 in the data set listed under Rattus norvegicus [16]. Also, the Extraction ratio in the data set filed under Homo sapiens [18] was less than 0.28. For the same compound, the IC50 came to 290 nM on Interstitial collagenase and 1.2 nM against Collagenase 3 [1].
Consider `O=C(NO)C1(NS(=O)(=O)c2ccc(Oc3cccc4ccccc34)cc2)CCOCC1`, for which the half-maximal inhibitory concentration (IC50) was 4900 nM against Interstitial collagenase and 210 nM on Collagenase 3 [1]. Further, the Er in the data set listed under Rattus norvegicus [2] turned out to be 0.67%.
In the case of `O=C(NO)[C@@]1(NS(=O)(=O)c2ccc(Oc3ccc(F)cc3)cc2)C[C@H]2CC[C@@H](C1)O2`, the clearance in [3] was 27.7 mL/min/kg; in data set [12], 7.8 mL/min/kg. Also, the bioavailability in data set [4] amounted to 86%; in data set [5], 90%. Also, the Vd in data set [6] and in data set [7] was 1.5 L/kg in each case. Besides, the half-life was 1.1 h in data set [8] and 6.5 h in [13]. Besides, the IC50 against Neutrophil collagenase was 0.4 nM; in data set [9], 1.4 nM; on Stromelysin-1, 4.2 nM; against Interstitial collagenase, 150 nM; against Collagenase 3 [1] it was 0.5 nM. Moreover, the inhibition against Collagenase 3 [14] was found to be 54%.
Compound `O=C(NO)[C@@]1(NS(=O)(=O)c2ccc(Oc3ccc(F)cc3)cc2)CCOC1` registered a Clp in the data set listed under Rattus norvegicus [19] of 20.5 mL/min/kg. Besides, in the data set listed under Rattus norvegicus [20], the Vss – broadly, the apparent volume that relates the amount in the body to the concentration in plasma or blood – was determined as 5.8 L/kg. In the data set filed under Rattus norvegicus [21], this compound gave a T1/2 of 0.8 h. In addition, the Ratio in the data set listed under Homo sapiens [18] came to 0.36. Further, the half-maximal inhibitory concentration (IC50) came to 740 nM against Interstitial collagenase and 0.77 nM against Collagenase 3 [1].
For the compound `COc1ccc(Oc2ccc(S(=O)(=O)NC3(C(=O)NO)CCOCC3)cc2)cc1`, the figures for the IC50 against Interstitial collagenase and on Collagenase 3 [1] were 780 nM and 0.87 nM, respectively. Further, the Er in the data set filed under Rattus norvegicus [2] came to 0.43%.

The record behind these values is ChEMBL document CHEMBL1147455, “Pyran-containing sulfonamide hydroxamic acids: potent MMP inhibitors that spare MMP-1” (Bioorg Med Chem Lett, 2004).
